How the values were obtained:
[1] = system: SK-MEL-28 melanoma cells; experiment: MTT cell viability assay, IC50; format: cell-based, human; conditions: MTT assay, 48 h incubation
[2] = system: tyrosinase; experiment: Tyrosinase mediated GSH depletion assay; format: biochemical, Mushroom; conditions: 100 μM phenolic agent, 200 μM GSH, tyrosinase/O2, 37 °C, 2 h
[3] = system: CYP2E1 induced rat liver microsomes; conditions: 100 μM, pH 7.4
[4] = system: isolated rat hepatocytes; conditions: trypan blue exclusion, 2 h incubation; cited from earlier work

Molecule	LD50 (day 2) SK-MEL-28 [1] [mM]	Tyrosinase GSH depletion (2 h) [2] [%]	Microsomes GSH depletion (2 h) [3] [%]	LD50 (2 h) rat hepatocytes [4] [mM]
O=C(/C=C/c1ccc(O)c(O)c1)O[C@@H]1C[C@](O)(C(=O)O)C[C@@H](O)[C@H]1O [CGA, chlorogenic acid]	>5	200±5		
O=C(O)/C=C/c1ccccc1 [CinA, cinnamic acid]		40±7	110±7	
O=C(O)CCc1ccc(O)c(O)c1 [DHCA, dihydrocaffeic acid]	2.2	200±4		6
O=C(O)CCc1ccccc1 [DHCinA, Dihydrocinnamic acid]	5	32±3		
ferulic acid [FA]	2	46±2		25

Reference: article PMC2932756 (Chemico-biological interactions, 2010)
